In publication PMC12797502, “Effects of emodepside on single-channel properties of Onchocerca volvulus SLO-1A (BK) potassium channels” (Parasites & Vectors, 2025):

Target: T1, Ovo-SLO-1A (Onchocerca volvulus, UniProt A0A2K6W0E9)
T1 construct: T2A-linked GFP as transfection marker; homotetramer; Ala350 printed in S6 (natural residue)
Test: inside-out and whole-cell patch clamp, transfected HEK293 cells
Type: biochemical
Settings: activator; 0.3 µM (inside-out, +20 mV, 100 µM free Ca2+, bath pH 7.2) or 1 µM (whole-cell, +20 mV); room temperature; empty-vector control

T1 sequence (A0A2K6W0E9 1-1119): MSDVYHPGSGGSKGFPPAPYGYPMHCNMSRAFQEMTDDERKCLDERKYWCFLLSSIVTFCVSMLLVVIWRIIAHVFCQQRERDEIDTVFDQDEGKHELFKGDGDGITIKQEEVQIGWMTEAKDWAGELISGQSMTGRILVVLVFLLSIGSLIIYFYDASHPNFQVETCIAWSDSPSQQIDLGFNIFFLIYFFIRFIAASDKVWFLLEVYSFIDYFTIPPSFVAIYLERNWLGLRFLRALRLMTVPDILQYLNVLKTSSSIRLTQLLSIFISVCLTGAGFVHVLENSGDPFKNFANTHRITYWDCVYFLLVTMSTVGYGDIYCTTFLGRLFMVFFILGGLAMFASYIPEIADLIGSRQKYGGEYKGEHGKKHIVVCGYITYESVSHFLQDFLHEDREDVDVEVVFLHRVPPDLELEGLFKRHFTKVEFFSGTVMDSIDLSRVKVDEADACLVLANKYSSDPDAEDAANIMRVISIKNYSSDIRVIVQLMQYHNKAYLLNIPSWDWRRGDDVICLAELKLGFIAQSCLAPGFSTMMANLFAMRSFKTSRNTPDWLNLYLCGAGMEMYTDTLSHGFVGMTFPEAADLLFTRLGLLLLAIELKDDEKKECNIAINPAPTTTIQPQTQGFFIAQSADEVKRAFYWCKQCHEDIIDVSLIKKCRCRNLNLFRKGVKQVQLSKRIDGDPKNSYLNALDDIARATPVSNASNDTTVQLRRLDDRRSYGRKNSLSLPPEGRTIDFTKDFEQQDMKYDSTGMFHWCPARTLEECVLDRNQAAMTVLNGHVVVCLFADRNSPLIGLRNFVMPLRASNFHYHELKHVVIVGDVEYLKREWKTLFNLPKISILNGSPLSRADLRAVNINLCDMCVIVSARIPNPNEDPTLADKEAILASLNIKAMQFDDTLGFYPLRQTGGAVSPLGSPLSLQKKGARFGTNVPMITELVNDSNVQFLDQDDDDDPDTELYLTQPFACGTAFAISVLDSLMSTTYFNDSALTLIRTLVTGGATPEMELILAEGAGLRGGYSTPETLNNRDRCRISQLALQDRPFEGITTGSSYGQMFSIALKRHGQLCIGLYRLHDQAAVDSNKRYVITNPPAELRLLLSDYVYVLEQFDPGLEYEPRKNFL

`CC(C)C[C@H]1C(=O)O[C@H](Cc2ccc(N3CCOCC3)cc2)C(=O)N(C)[C@@H](CC(C)C)C(=O)O[C@H](C)C(=O)N(C)[C@@H](CC(C)C)C(=O)O[C@H](Cc2ccc(N3CCOCC3)cc2)C(=O)N(C)[C@@H](CC(C)C)C(=O)O[C@H](C)C(=O)N1C` [Emodepside] was tested, and the “inside-out and whole-cell patch clamp, transfected HEK293 cells” value was “The probability of the channel being open, Popen, significantly increased”.
